{"source": "paper PMC2807854", "about": "“Monoketone analogs of curcumin, a new class of Fanconi anemia pathway inhibitors” (Molecular Cancer, 2009)", "key": {"[1]": {"tested_on": "xFANCD2-Ub (FANCD2 monoubiquitylation)", "test": "Xenopus cell-free FA pathway assay: DNA substrate-induced xFANCD2 monoubiquitylation (immunoblot, densitometry)", "type": "biochemical, Xenopus laevis", "conditions": "for activity against xFANCD2-Ub in Xenopus extracts: activated Xenopus extracts, serial dilutions up to 3000 μM; for IC50: plasmid-activated Xenopus extracts, Fig. 7B, read-out: xFANCD2-Ub inhibition IC50", "experimental": "(§1) A series of monoketone analogs of curcumin [18] was evaluated in Xenopus egg extracts where DNA substrate-induced xFANCD2-Ub is used as a readout of FA pathway performance. Phosphorylation of MRE11 (MRE11-P), a member of the MRN DNA damage repair pathway was monitored to assess the cross-specificity of the compounds. For each compound, IC50 values were determined from serial dilution experiments and densitometry analysis of immunoblots.\n(§2) IC50 values were determined using immunoblots of plasmid-activated extracts treated with a range of concentrations for each compound (0, 10, 25, 60, 150, 400, 1000, 3000 μM). A representative experiment is shown (out of 3 repeats). B) Structure of curcumin and monoketone analogs. […] Activated extracts were treated with 1 mM each compound and phosphorylation of RPA32 and H2AX monitored by immunoblot.\n(§3) Preparation of Xenopus laevis low-speed extracts and the FA pathway assay were described previously.\n(§4) Fitted curves were determined from experimental data using IgorPro. The concentration of compound that induces 50% inhibition of the measured endpoint (i.e. FANCD2 ubiquitylation, Mre11 phosphorylation and cell survival) was then plotted on the fitted curve."}, "[2]": {"tested_on": "proteasome", "test": "Proteasome assay in Xenopus extracts, both activities taken together", "type": "biochemical, Xenopus laevis", "conditions": "caspase-like and chymotrypsin-like activities", "text": "The proteasome is required for the monoubiquitylation of xFANCD2 in cells. As curcumin has proteasome inhibiton activities, we tested whether EF24 inhibits xFANCD2-Ub by this mechanism. Two proteasome activities (caspase-like and chymotrypsin-like) along with xFANCD2-Ub status were monitored in activated Xenopus extracts treated with various compounds (Fig. 2A).\nProteasome activities and xFANCD2-Ub were monitored using fluorogenic probes and immunoblotting, respectively. IC50 values were determined for each compound using a range of concentrations and represented in histogram graphs. For MG132, numbers above caspase-like and chymotrypsin-like histograms indicate the actual IC50 values. A representative experiment is shown (out of 3 repeats).\nFluorogenic peptides (Proteasome Substrate Pack #PW9905) specific for the chymotrypsin-like and caspase-like activities of the proteasome were incubated in Xenopus extracts treated with serial dilutions of various compounds. Fluorescence emitted by proteasome cleavage of the peptides was monitored using a fluorometer (FluoStar Galaxy, BMG Labtech) with 380 nm and 460 nm excitation and emission filters, respectively. Experiments were repeated at least twice."}, "[3]": {"tested_on": "309ATM KO cells", "test": "Survival assay (MTS), ATM KO mouse kidney cells", "type": "cell-based", "conditions": "for IC50: 309ATM KO cells, 72 hrs, MTS, read-out: cell survival IC50 KO; for sensitivity of 309ATM KO cells compared to 334ATM WT cells: 72 hrs survival, KO vs WT", "text": "(§5) To test this possibility, we compared the effects of curcumin and EF24 in an ATM KO mouse kidney cell line (309ATM KO) and its isogenic, wild type counterpart (334ATM WT). As expected from ATM deficiency, 309ATM KO cells were more sensitive to ionizing irradiation than 334ATM WT (Additional File 1 - Fig. S3). We next treated these cell lines with various concentrations of EF24 and measured their survival after 72 hrs.\n(§6) Figure 6 EF24 but not curcumin or DRB is more toxic to ATM-deficient mouse kidney cells than wild-type cells. A) 309ATM KO and 334ATM WT cells were treated with various concentrations of EF24. Cell viability was measured after 3 days by MTS assay. Each point represents the mean of 3 repeats. Error bars represent standard deviation. B) Similar experiment was performed using curcumin.\n(§7) HSC72OT and HSC72OT+A cells were seeded at 5,000 per well in 96-well plates, and treated 24 hrs later with various concentrations of compounds or DMSO (1 μl in 100 μl medium). 309ATM KO and 334ATM WT cells were seeded at 7,000 per well and treated immediately. Cell survival was measured after 3 days using the CellTiter 96 AQueous One Solution Cell Proliferation Assay (Promega) following the recommendations from the manufacturer. All experiments were done in triplicate.\nas §4"}, "[4]": {"tested_on": "334ATM WT cells", "test": "Survival assay (MTS), ATM wild-type mouse kidney cells", "type": "cell-based", "conditions": "72 hrs, read-out: cell survival IC50 WT", "text": "as §5, §6, §7, §4"}, "[5]": {"tested_on": "hFANCD2-Ub in HeLa cells", "test": "hFANCD2 ubiquitylation assay in hydroxyurea-treated HeLa cells (immunoblot, densitometry)", "type": "cell-based, human", "conditions": "Homo sapiens; HeLa cells co-treated with hydroxyurea; read-out: hFANCD2-Ub inhibition IC50", "experimental": "We next determined whether EF24 could inhibit hFANCD2-Ub in human cells. Curcumin was tested in parallel to assess whether activity difference observed in extracts are mirrored in cells. HeLa cells were co-treated with increasing concentrations of compounds and hydroxyurea (HU), a standard method to stimulate hFANCD2-Ub (Fig. 4A, lanes 1-2, 7-8, [30]).\nA) Hydroxyurea-induced FANCD2-Ub in HeLa cells is inhibited by EF24 at lower concentrations than curcumin. hFANCD2-Ub was monitored by immunoblot and densitometry analysis to determine IC50. B) Hydroxyurea-induced hFANCD2 foci formation is inhibited by EF24. hFANCD2 foci were detected by immunofluorescence and the percentage of cells with more than 5 foci was determined for each treatment. Histograms represent the average of 3 experiments. Error bars represent standard deviation.\nhFANCD2 ubiquitylation assay and immunofluorescence assays in HeLa cells have been described elsewhere.\nas §4"}, "[6]": {"tested_on": "proteasome", "set-up": "method as in PMID 16982768", "conditions": "cited from earlier work"}, "[7]": {"tested_on": "ubiquitin isopeptidase/deubiquitinase (DUB)", "set-up": "method as in PMID 16982768", "conditions": "cited from earlier work"}, "[8]": {"tested_on": "IKK (IκB-α stabilization)", "test": "IκB-α accumulation in Xenopus extracts as readout of IKK inhibition (immunoblot)", "type": "biochemical, Xenopus laevis", "conditions": "Xenopus extracts prepared without cycloheximide, Fig. 3A/3B", "experimental": "We tested whether EF24 inhibits IKK activity in Xenopus extracts by monitoring the accumulation of the IKK target, IκB-α (Fig. 3A). Because IκB-α phosphorylation by IKK leads to its degradation by the ubiquitin-proteasome pathway, inhibition of IKK results in the accumulation of IκB-α. For this experiment, we used extracts prepared without cycloheximide to allow for de novo translation of IκB-α.\nExtracts treated as indicated were analyzed by immunoblot using xFANCD2, IκB-α and tubulin-α antibodies. IκB-α protein level was used as readout for monitoring IKK inhibition. […] Experiment was performed as in (A). The structure of BMS-345541 is shown. The star denotes a non-specific band used as loading control."}, "[9]": {"tested_on": "xMRE11-P (MRE11 phosphorylation)", "test": "MRE11 phosphorylation in activated Xenopus extracts (immunoblot)", "type": "biochemical, Xenopus laevis", "experimental": "as §1, §2, §3, §4"}, "[10]": {"tested_on": "IKK-2 (IKKβ) vs IKK-1 (IKKα)", "conditions": "cited from earlier work"}}, "note": "Where two headings read alike, the source gives them in different places. Residues, ends and D or L forms follow the SMILES beside them. *: point of attachment. Cbz = O=C(OCc1ccccc1)*"}
{"smiles": "O=C1/C(=C/c2ccc(F)cc2)CNC/C1=C\\c1ccc(F)cc1", "note": "[AS153-5]", "values": [{"measurement": "activity against xFANCD2-Ub in Xenopus extracts", "setting": "[1]", "result": "much more potent than the corresponding thio-pyran analog"}]}
{"smiles": "CC(C)(C)OC(=O)N1C/C(=C\\c2ccccc2F)C(=O)/C(=C/c2ccccc2F)C1", "note": "[0616-104]", "values": [{"measurement": "activity against xFANCD2-Ub in Xenopus extracts", "setting": "[1]", "result": "non-detectable levels"}]}
{"smiles": "NC1C/C(=C\\c2ccccc2F)C(=O)/C(=C/c2ccccc2F)C1", "note": "(stereo not shown) [0810-117]", "values": [{"measurement": "activity against xFANCD2-Ub in Xenopus extracts", "setting": "[1]", "result": "non-detectable levels"}, {"measurement": "proteasome inhibition", "setting": "[2]", "result": "weak inhibitory activities against both the proteasome and xFANCD2-Ub"}]}
{"smiles": "O=C1/C(=C/c2ccccn2)CSC/C1=C\\c1ccccn1", "note": "[0821-120A]", "values": [{"measurement": "activity against xFANCD2-Ub in Xenopus extracts", "setting": "[1]", "result": "drops the activity only slightly"}]}
{"smiles": "OC[C@H]1O[C@@H](n2cnc3cc(Cl)c(Cl)cc32)[C@H](O)[C@@H]1O", "note": "[DRB, reference compound]", "values": [{"measurement": "IC50", "setting": "[3]", "result": 56, "unit": "µM"}, {"measurement": "IC50", "setting": "[4]", "result": 60, "unit": "µM"}, {"measurement": "activity against xFANCD2-Ub in Xenopus extracts", "setting": "[1]", "result": "no effect on the FA pathway in Xenopus extracts"}]}
{"smiles": "O=C1/C(=C/c2ccc([N+](=O)[O-])cc2)CS(=O)(=O)C/C1=C\\c1ccc([N+](=O)[O-])cc1", "note": "[4H-TTD, 4H-Thiopyran-4-one, tetrahydro-3,5-bis [(4-nitrophenyl)methylene]-,1,1-dioxide]", "values": [{"measurement": "overall cell toxicity concentration relative to EF24", "setting": "[3]; 309ATM KO and 334ATM WT survival assay", "result": "about 10 times"}, {"measurement": "sensitivity of 309ATM KO cells compared to 334ATM WT cells", "setting": "[3]", "result": 3, "unit": "fold"}, {"measurement": "IC50", "setting": "[3]; Mus musculus", "result": 0.18, "unit": "µM"}, {"measurement": "IC50", "setting": "[4]; Mus musculus", "result": 0.5, "unit": "µM"}, {"measurement": "IC50", "setting": "[5]", "result": 0.12, "unit": "µM"}, {"measurement": "IC50", "setting": "[1]", "result": 250, "unit": "µM"}, {"measurement": "proteasome activity", "setting": "[6]", "result": "did not inhibit proteasome activity"}, {"measurement": "ubiquitin isopeptidase/deubiquitinase (DUB) inhibition", "setting": "[7]", "result": "exhibited ubiquitin isopeptidase/deubiquitinase (DUB) inhibition activity"}]}
{"smiles": "CC(C)C[C@@H](C=O)NC(=O)[C@H](CC(C)C)NC(=O)[C@H](CC(C)C)NC(=O)OCc1ccccc1", "note": "[MG132, reference compound] (Cbz-Leu-Leu-Leu-aldehyde)", "values": [{"measurement": "activity against xFANCD2-Ub in Xenopus extracts", "setting": "[1]", "result": "only a weak activity on xFANCD2-Ub"}, {"measurement": "proteasome inhibition", "setting": "[2]", "result": "efficiently inhibited both proteasome activities"}]}
{"smiles": "O=C1/C(=C/c2ccccn2)COC/C1=C\\c1ccccn1", "note": "[0822-3]", "values": [{"measurement": "activity against xFANCD2-Ub in Xenopus extracts", "setting": "[1]", "result": "only weakly active"}]}
{"smiles": "O=C1/C(=C/c2ccccn2)CNC/C1=C\\c1ccccn1", "note": "[EF31]", "values": [{"measurement": "activity against xFANCD2-Ub in Xenopus extracts", "setting": "[1]", "result": "strong activity against xFANCD2-Ub"}, {"measurement": "fold less active than curcumin for proteasome inhibition", "setting": "[2]", "result": 20, "unit": "fold"}]}
{"smiles": "Cc1ccc2nc(NCCN)c3ncc(C)n3c2c1", "note": "[BMS-345541, reference compound]", "values": [{"measurement": "EC50", "setting": "[8]", "result": 280, "unit": "µM"}, {"measurement": "effect on xMRE11 phosphorylation", "setting": "[9]", "result": "MRE11 phosphorylation was inhibited"}, {"measurement": "fold more active on IKK-2 (IKKβ) than on IKK-1 (IKKα)", "setting": "[10]", "result": 10, "unit": "fold"}, {"measurement": "EC50", "setting": "[1]; Xenopus extracts prepared without cycloheximide, Fig. 3A/3B, read-out: xFANCD2-Ub inhibition EC50", "result": 970, "unit": "µM"}]}
{"smiles": "CO[C@H]([C@H](O)CC(=O)[C@@H](C)[C@@H](O)CC[C@@H](C)[C@@H]1O[C@]2(CC[C@@H](C)[C@H](CC[C@H](C)C(C)=O)O2)CC[C@@H]1C)[C@H](OC(=O)C[C@@H](O)C1=C(C)C(=O)OC1=O)C(C)C", "note": "[tautomycin, reference compound]", "values": [{"measurement": "effect on xMRE11 phosphorylation", "setting": "[9]", "result": "accumulation of xMRE11-P"}, {"measurement": "activity against xFANCD2-Ub in Xenopus extracts", "setting": "[1]", "result": "no detectable effect on xFANCD2-Ub"}]}
{"smiles": "COc1cc(/C=C/C(=O)CC(=O)/C=C/c2ccc(O)c(OC)c2)ccc1O", "note": "[curcumin]", "values": [{"measurement": "sensitivity of 309ATM KO cells compared to 334ATM WT cells", "setting": "[3]", "result": "slightly more resistant"}, {"measurement": "IC50", "setting": "[3]; Mus musculus", "result": 23, "unit": "µM"}, {"measurement": "IC50", "setting": "[4]; Mus musculus", "result": 17, "unit": "µM"}, {"measurement": "IC50", "setting": "[5]", "result": 15, "unit": "µM"}, {"measurement": "activity against xFANCD2-Ub in Xenopus extracts", "setting": "[1]", "result": "only a weak activity on xFANCD2-Ub"}, {"measurement": "IC50", "setting": "[1]", "result": "> 2000", "unit": "µM"}, {"measurement": "proteasome inhibition", "setting": "[2]", "result": "efficiently inhibited both proteasome activities"}]}
{"smiles": "O=C1/C(=C/c2ccccc2F)COC/C1=C\\c1ccccc1F", "note": "[AS153-2]", "values": [{"measurement": "activity against xFANCD2-Ub in Xenopus extracts", "setting": "[1]", "result": "undetectable levels"}]}
{"smiles": "O=C1/C(=C/c2cccc(F)c2)CNC/C1=C\\c1cccc(F)c1", "note": "[AS153-4]", "values": [{"measurement": "activity against xFANCD2-Ub in Xenopus extracts", "setting": "[1]", "result": "strong activity against xFANCD2-Ub"}, {"measurement": "fold less active than curcumin for proteasome inhibition", "setting": "[2]", "result": 20, "unit": "fold"}]}
